Measured values: patent US10183931B2, “Rho kinase inhibitors” (priority 2012, dated 2019)
Entries after “also recorded” stand apart in the source; their conditions may differ.

Key:
[1] = tested on: human CD4+ T cells; assay: T cell proliferation in response to TCR stimulation in vitro; format: cell-based
[2] = tested on: TGF-β-induced phosphorylation; assay: TGF-β-induced phosphorylation of STAT3, MLC and SMAD2/3 in Tregs; format: cell-based, human
[3] = tested on: human Tregs; assay: Treg suppression of IL-17 secretion in CD4+CD25- effector T cells; format: cell-based; conditions: Tregs treated 3 hours; Treg:Teff 1:4 and 1:9
[4] = tested on: human CD4+ T cells; assay: Foxp3+ cells among CD4+ T cells after Th17 skewing activation; format: cell-based; conditions: 5 days Th17 skewing activation
[5] = tested on: CD4+ T cells from RA patients; assay: cytokine secretion ex vivo by CD3/CD28 stimulated CD4+ T cells from RA patients; format: cell-based, human
[6] = tested on: human CD4+ T cells; assay: cytokine secretion by anti-CD3/CD28 stimulated CD4+ T cells in vitro; format: cell-based; conditions: anti-CD3/CD28 stimulation
[7] = tested on: STAT3 phosphorylation; assay: STAT3 phosphorylation in T cells; format: cell-based, human
[8] = target: ROCK1 (Homo sapiens (Human), UniProt Q13464); conditions: read-out: ROCK1 IC50; Z′-LYTE, 5 uM ATP
From the text: (§1) Dose response curves for Rho-kinase inhibition were derived from a Invitrogen Z′-LYTE™ Kinase Assay Kit (Invitrogen catalog number PV3793). Purified active ROCK1 and ROCK2 were obtained from Invitrogen (catalog numbers ROCK1, PV3691 and ROCK2, PV3759). The kit components include a coumarin and fluorescein labeled peptide based on myosin light chain 2 ([sequence]), a proprietary protease containing development reagent and a proprietary Stop buffer used to terminate the development reaction. The inhibitory activities of compounds are measured according to the manufactures protocol. Briefly, decreasing concentrations of test compounds or the known ROCK inhibitor Y-27963, are added, from 10 uM to 2.56×10^−5 uM to reaction buffer containing 50 mM HEPES pH 7.5, 10 mM MgCl2, 5 mM EGTA, and 0.05% Brij-35 and of ROCK1 at 0.18 ug/mL or ROCK2 at 0.8 ug/mL in assay dilution buffer. […] STOP reagent is then added and the reaction and immediately the coumarin and fluorescein emission signals are read on a Tecan Infinite M1000 fluorescence plate reader (excitation: 400 nm; emission 445 and 520 nm, respectively). By comparing the emission ratios of the test samples against control samples, percent phosphorylation values are calculated and the concentration of inhibitor that produces 1/2 inhibition of kinase activity (IC50) is determined using Prism.

[9] = target: ROCK2 (Homo sapiens (Human), UniProt O75116); conditions: read-out: ROCK2 IC50; Z′-LYTE, 12 uM ATP
From the text: as §1

[10] = RA patients, ex vivo, TCR stimulation

ROCK2, sequence (O75116 5-554 limits assumed): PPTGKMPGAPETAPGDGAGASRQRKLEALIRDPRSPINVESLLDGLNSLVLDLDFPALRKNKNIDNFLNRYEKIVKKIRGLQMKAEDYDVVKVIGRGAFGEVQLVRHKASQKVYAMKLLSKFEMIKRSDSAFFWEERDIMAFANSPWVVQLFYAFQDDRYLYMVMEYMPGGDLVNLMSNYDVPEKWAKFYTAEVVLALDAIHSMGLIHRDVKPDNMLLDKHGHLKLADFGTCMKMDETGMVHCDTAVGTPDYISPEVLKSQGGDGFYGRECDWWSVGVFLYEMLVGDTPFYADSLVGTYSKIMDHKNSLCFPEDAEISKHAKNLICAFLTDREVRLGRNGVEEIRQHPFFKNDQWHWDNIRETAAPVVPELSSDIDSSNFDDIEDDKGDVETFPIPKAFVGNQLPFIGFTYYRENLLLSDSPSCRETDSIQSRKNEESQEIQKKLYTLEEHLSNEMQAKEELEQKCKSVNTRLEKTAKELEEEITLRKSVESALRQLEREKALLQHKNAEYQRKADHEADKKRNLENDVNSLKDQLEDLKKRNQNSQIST
ROCK1, sequence (Q13464 1-535 limits assumed): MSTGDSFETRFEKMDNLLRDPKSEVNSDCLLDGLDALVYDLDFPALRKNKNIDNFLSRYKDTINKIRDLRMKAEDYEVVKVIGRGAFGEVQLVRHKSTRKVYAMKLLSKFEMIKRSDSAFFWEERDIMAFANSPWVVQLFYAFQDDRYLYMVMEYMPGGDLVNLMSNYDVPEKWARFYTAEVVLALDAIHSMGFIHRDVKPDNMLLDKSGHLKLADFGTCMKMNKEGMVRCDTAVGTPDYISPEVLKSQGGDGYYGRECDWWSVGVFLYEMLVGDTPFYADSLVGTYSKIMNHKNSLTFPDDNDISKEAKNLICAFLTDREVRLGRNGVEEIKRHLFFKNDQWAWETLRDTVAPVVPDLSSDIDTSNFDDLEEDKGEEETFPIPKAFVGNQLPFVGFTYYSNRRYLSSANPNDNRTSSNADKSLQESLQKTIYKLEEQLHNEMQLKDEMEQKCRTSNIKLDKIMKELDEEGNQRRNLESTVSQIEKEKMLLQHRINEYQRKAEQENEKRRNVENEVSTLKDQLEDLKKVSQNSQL

Compound	ability to proliferate in response to TCR stimulation [1]	phosphorylation of SMAD2/3 [2]	TGF-β-induced MLC phosphorylation ([2]; dose-dependent)	TGF-β-induced STAT3 phosphorylation ([2]; dose-dependent)	ability of Tregs to suppress IL-17 secretion in CD4+CD25- effector T cells [3]	percentage of Foxp3+ cells [4]	frequencies of IL-17 and IFN-γ-producing cells ([5]; 2 RA patients, intracellular staining)	secretion of IFN-γ [5, 10]	secretion of IL-17 [5, 10]	secretion of IL-21 [5, 10]	inhibition of IFN-γ secretion [6]	inhibition of IL-2 secretion [6]	IL-17 secretion ([6]; dose-dependent)	IL-21 secretion ([6]; dose-dependent)	phosphorylation of STAT3 ([7]; T cells, two experimental designs)	STAT3 phosphorylation ([7]; Th17-skewing conditions 5 days, then treatment 3 hours)	IC50 [8]	IC50 [9]
CC(C)NC(=O)COc1cccc(-c2nc(Nc3ccc4[nH]ncc4c3)c3ccccc3n2)c1 [KD025]	inhibits; also recorded: down-regulated	remains intact	down-regulates	down-regulates	significantly increased	significantly increased	significantly reduced	inhibits; also recorded: significantly down-regulated	inhibits; also recorded: significantly down-regulated	inhibits; also recorded: significantly down-regulated	less robust and significant only at high dose (10 μM)	observed only at the highest concentration (10 μM)	inhibits; also recorded: significantly inhibited	inhibits; also recorded: significantly inhibited	inhibits; also recorded: significantly down-regulates	reduced		
CC(N)c1cccc(-c2nccc(Nc3ccc4[nH]ncc4c3)n2)c1 (centres unmarked) [Example 147, N-(2-(3-(1-aminoethyl)phenyl)pyrimidin-4-yl)-1H-indazol-5-amine]																	> 2 µM	> 5.5 µM
CC(C)NC(=O)COc1cccc(-c2nc(Nc3ccc4[nH]ncc4c3)cc(C(F)(F)F)n2)c1 [Example 169]																	> 10 µM	> 10 µM
